What was measured:
[1] = test system: BCR-ABL transformed BaF3 cells; assay: Cell growth of BCR-ABL transformed BaF3 cells; assay type: cell-based, murine
Description: (§1) Cells. The murine pre-B cell line BaF3 was grown in RPMI 1640 containing 10% fetal calf serum and 10% WEHI-conditioned medium as a source of murine IL-3. BaF3 cell lines transfected with a BCR/ABL, TEUABL, TEUJAK2, or TEUPDGFβR cDNA were grown in the absence of growth factors. A TPR/MET expressing BaF3 cell line was generated by transfection of an expression vector containing the TPR/MET cDNA as previously described (Sattler, M., Pride, Y. B., Ma, P., Gramlich, J. L., Chu, S. C., Quinnan, L. A., Shirazian, S., Liang, C., Podar, K., Christensen, J. G. & Salgia, R. (2003). Cancer Res, 63, 5462-9.). The number of viable cells after treatment with DMSO or PHA665752 was determined using an MTT assay (In Vitro Toxicology Assay Kit, Sigma, St. Louis, Mo.) or trypan blue exclusion.
(§2) Referring to FIG. 1, BaF3 cells lines transformed by tyrosine kinase oncogenes were used to determine cell growth (A-C) or transwell migration (D) in response to the small molecule c-MET kinase inhibitor PHA665752. A: The relative growth of BaF3 cells transformed by TPR-MET in response to different concentrations of PHA665752 was determined after 18 h (n=3). […] D: Cells were treated for 18 hr with the indicated dose of PHA665752 and the spontaneous transwell migration relative to DMSO-treated cells determined (n=4).

[2] = test system: TPR-MET transformed BaF3 cells; assay: Cell growth of TPR-MET transformed BaF3 cells (MTT assay or trypan blue exclusion); assay type: cell-based, murine
Description: as §1
(§3) Referring to FIG. 1, BaF3 cells lines transformed by tyrosine kinase oncogenes were used to determine cell growth (A-C) or transwell migration (D) in response to the small molecule c-MET kinase inhibitor PHA665752. A: The relative growth of BaF3 cells transformed by TPR-MET in response to different concentrations of PHA665752 was determined after 18 h (n=3). B: TPR-MET transformed BaF3 cells were either left untreated (♦) or treated (▴) with PHA665752 (1 μM) for the indicated time in the presence or absence of IL-3 (n=3). C: BaF3 cells transformed by tyrosine kinase oncogenes were treated for 18 h with PHA665752 (1 μM) (n=3). D: Cells were treated for 18 hr with the indicated dose of PHA665752 and the spontaneous transwell migration relative to DMSO-treated cells determined (n=4).
Referring to FIG. 5, the relative growth of BaF3 cells transformed by TPR-MET in response to different concentrations of rapamycin (0.01 nM to 10 nM) was determined in the presence (▴) or absence (▪) of PHA665752 (0.5 μM) after a 3 day culture (n=3).

[3] = test system: BaF3.TPR-MET cells; assay: Transwell migration assay; assay type: cell-based, murine; settings: Mus musculus, compared to DMSO treated cells, n=4, read-out: inhibition of the cell migration
Description: as §3

[4] = test system: caspase-3; assay: Caspase-3 activity in cell lysates; assay type: cell-based, murine; settings: compared to DMSO treated cells, 18 h, n=3, p<0.03
Description: (§4) Apoptosis assays. The activity of caspase-3-was measured in cell lysates (CaspACE Assay System, Promega) and Annexin V positive staining was determined by FACS analysis (Annexin-V-Fluos Staining Kit, Roche Diagnostics) according to the manufacturer's directions in cells that were either treated with PHA665752 or the solvent DMSO.
(§5) Referring to FIG. 2, TPR-MET transformed BaF3 cells were treated for 18 h with either DMSO or the indicated amount of PHA665752 (n=3). A: Annexin V and propidiumiodide staining was determined by flow cytometry. B: Activity of caspase-3 was determined in cell lysate (n=3). C: The percentage of cells in different cell cycle phases was determined by flow cytometry after propidiumiodide staining (n =3).

[5] = test system: TEL-PDGFFBR transformed BaF3 cells; assay: Cell growth of TEL-PDGFFBR transformed BaF3 cells; assay type: cell-based, murine; settings: 0.2 μM, 18 hours, FIG. 1C
Description: as §1, §2

[6] = test system: TEL-JAK2 transformed BaF3 cells; assay: Cell growth of TEL-JAK2 transformed BaF3 cells; assay type: cell-based, murine; settings: 0.2 μM, 18 hours, FIG. 1C
Description: as §1, §2

[7] = test system: TPR-MET transformed BaF3 cells; assay: Cell cycle analysis (propidiumiodide, FACS); assay type: cell-based, murine; settings: 18 h
Description: Cell cycle analysis. Fixed cells were stained with propidiumiodide and cell cycle parameters analyzed by FACS analysis.
as §5

[8] = test system: TEL-ABL transformed BaF3 cells; assay: Cell growth of TEL-ABL transformed BaF3 cells; assay type: cell-based, murine; settings: 0.2 μM, 18 hours, FIG. 1C
Description: as §1, §2

[9] = test system: TPR-MET transformed BaF3 cells; assay: Apoptosis assay, Annexin V / propidiumiodide staining by FACS; assay type: cell-based, murine; settings: 0.2 µM, 18 h
Description: as §4, §5

[10] = test system: p70-S6K[Thr421/Ser424]; assay: Immunoblotting, phospho-p70-S6K[Thr421/Ser424] in TPR-MET transformed BaF3 cells; assay type: cell-based, murine; settings: FIG. 4C
Description: (§6) Immunoblotting. Proteins were extracted from whole cells by lysing them in a Tris buffer (50 mM, pH 8.0) containing NaCl (150 mM), NP40 (1%, v/v), deoxycholic acid (0.5%, w/v), sodium dodecylsulfate (0.1%, w/v), NaF (1 mM), Na3VO4 (1 mM) and glycerol (10%, v/v) (Sigma, St. Louis, Mo.) supplemented with a protease inhibitor cocktail (complete, Roche, Indianapolis, Ind.). Polyclonal antibodies against p70-S6K (Biosource International, Camarillo, Calif.), total c-MET (C-12, Santa Cruz, Santa Cruz, Calif.), phosphatidylinositol-3′-kinase (Upstate Biotechnology, Lake Placid, N.Y.) and phosphorylated AKT[Ser473] or p70-S6K[Thr421/Ser424] (Cell Signaling, Beverly, Mass.), phospho-MET[Tyr1230/1234/1235] (Biosource International, Camarillo, Calif.) as well as phosphotyrosine (4G10, Upstate Biotechnology, Lake Placid, N.Y.) were used for immunoblotting.
(§7) Referring to FIG. 4, phosphorylation of cellular proteins was determined by immunoblotting in whole cell lysate as indicated using anti-phosphotyrosine antibody (4G10) (A), total c-MET antibody, anti-pY1230/1234/1235-MET antibody (recognizing the corresponding pY361/365/366 sites in TPR-MET), anti-pY1349-MET (recognizing the pY480 site in TPR-MET) and anti-pY1365-MET (recognizing the pY496 site in TPR-MET) phospho-antobodies (B), and phospho-AKT and phospho-S6K antibodies (C). […]

[11] = test system: parental BaF3 cells; assay: Cell growth of IL-3 stimulated parental BaF3 cells; assay type: cell-based, murine; settings: 0.2 μM, 72 hour culture (data not shown)
[12] = target: T1, TPR-MET (Homo sapiens, UniProt P08581); assay: Immunoblotting, TPR-MET autophosphorylation with phosphospecific antibodies; assay type: cell-based; settings: TPR-MET transformed BaF3 cells, FIG. 4B
T1 construct: TPR portion (fusion partner, nucleoprotein TPR; human entry would be P12270); expressed in transfected cells; host or cells: BaF3 (murine pre-B cell line); the other entry of the earlier key: TPR (P12270, Nucleoprotein TPR)
Description: as §6, §7

[13] = test system: tyrosine phosphorylation of cellular proteins in BCR-ABL transformed BaF3 cells; assay: Immunoblotting, tyrosine phosphorylation of cellular proteins in BCR-ABL transformed BaF3 cells; assay type: cell-based, murine; settings: BCR-ABL transformed BaF3 cells (data not shown)
Description: as §6

[14] = test system: tyrosine phosphorylation of cellular proteins in BaF3.TPR-MET cells; assay: Immunoblotting, tyrosine phosphorylation of cellular proteins in BaF3.TPR-MET cells; assay type: cell-based, murine; settings: anti-phosphotyrosine antibody (4G10), FIG. 4A
Description: as §6, §7

[15] = test system: AKT[Ser473]; assay: Immunoblotting, phospho-AKT[Ser473] in TPR-MET transformed BaF3 cells; assay type: cell-based, murine; settings: FIG. 4C
Description: as §6, §7

T1 sequence (P08581 with tags, fused parts or gaps): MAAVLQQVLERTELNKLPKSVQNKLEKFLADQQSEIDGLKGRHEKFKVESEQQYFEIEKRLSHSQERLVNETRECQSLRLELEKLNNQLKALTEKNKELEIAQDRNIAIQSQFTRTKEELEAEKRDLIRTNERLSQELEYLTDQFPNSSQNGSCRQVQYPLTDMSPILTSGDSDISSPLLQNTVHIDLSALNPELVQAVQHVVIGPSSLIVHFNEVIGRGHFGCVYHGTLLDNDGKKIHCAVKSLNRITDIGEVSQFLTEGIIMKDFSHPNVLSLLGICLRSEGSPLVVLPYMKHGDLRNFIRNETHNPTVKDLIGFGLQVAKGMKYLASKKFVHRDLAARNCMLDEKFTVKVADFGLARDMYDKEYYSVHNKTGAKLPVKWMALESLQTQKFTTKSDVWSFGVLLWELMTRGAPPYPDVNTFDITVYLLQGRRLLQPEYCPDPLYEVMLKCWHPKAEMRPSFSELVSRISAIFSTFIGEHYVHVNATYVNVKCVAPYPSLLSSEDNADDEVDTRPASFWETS

Cc1[nH]c(/C=C2\C(=O)Nc3ccc(S(=O)(=O)Cc4c(Cl)cccc4Cl)cc32)c(C)c1C(=O)N1CCC[C@@H]1CN1CCCC1 [PHA665752, (3Z)-5-[(2,6-dichlorobenzyl)sulfonyl]-3-[(3,5-dimethyl-4-{[(2R)-2-(pyrrolidin-1-ylmethyl)pyrrolidin-1-yl]carbonyl}-1H-pyrrol-2-yl)methylene]-1,3-dihydro-2H-indol-2-one]
inhibition of cell growth ([1]; 0.2 μM, 18 hours, BCR-ABL transformed BaF3 cells, FIG. 1C): did not inhibit cell growth
effect on cell growth in the presence of IL-3 ([1]; BCR-ABL transformed cells, control experiment, presence of IL-3, 72 hour culture, FIG. 1B): only little effect on cell growth
effect on cell growth in the absence of IL-3 ([2]; BaF3.TPR-MET, absence of IL-3, 72 hour culture, PHA665752 (1 μM) per FIG. 1B legend): completely blocked cell growth
IC50 ([2]; Mus musculus, BaF3.TPR-MET cells, after 18 h, FIG. 1A, read-out: IC50, inhibition of cell growth): < 60 nM
effect on cell growth in the presence of IL-3 ([2]; TPR-MET transformed cells, presence of IL-3, 72 hour culture, PHA665752 (1 μM) per FIG. 1B legend): only little effect on cell growth
inhibition at 0.2 µM [3]: 92.5 ± 3%
increase in caspase-3 activity [4]: 3.5±0.7 fold
inhibition of cell growth [5]: did not inhibit cell growth
inhibition of cell growth [6]: did not inhibit cell growth
percentage of cells in G2/M-phase ([7]; 0.2 μM, DMSO 12.2%): 5.5%
percentage of cells in G1-phase ([7]; 0.2 μM, DMSO 42.4%): 77.0%
percentage of cells in S-phase ([7]; 0.2 μM, DMSO 45.4%): 17.5%
cells in sub-G1-phase ([7]; consistent with apoptotic cells): increase of cells in sub-G1-phase
inhibition of cell growth [8]: did not inhibit cell growth
cells in early apoptosis (Annexin V positive) [9]: 13.9±1.0%
cells in late apoptosis (Annexin V plus propidiumiodide positive) [9]: 19.2±1.8%
number of apoptotic cells (of total population) ([9]; control cells 5%): 33.1%
phosphorylation of the mTOR substrate p70-S6K[Thr421/Ser424] [10]: reduced phosphorylation
growth inhibitory effect [11]: did not observe a significant growth inhibitory effect
autophosphorylation in the catalytic tyrosine kinase domain at Tyr361/365/366, Tyr480 and Tyr496 [12]: inhibits autophosphorylation
tyrosine phosphorylation of cellular proteins [13]: did not alter tyrosine phosphorylation of cellular proteins
tyrosine phosphorylation of cellular proteins [14]: reduced tyrosine phosphorylation of cellular proteins in a dose dependent manner
serine phosphorylation of AKT[Ser473] [15]: reduced serine phosphorylation
